Experimental data from patent US7361660B2, “Chemical compounds” (AstraZeneca AB, priority 2001, dated 2008).

Tested on: peripheral blood mononuclear cell (PBMC)
Assay: Inhibition of PMA/ionomycin-stimulated peripheral blood mononuclear cell proliferation
Type: cell-based
Conditions: human PBMC from a single donor, PMA 0.5 ng/ml and ionomycin 500 ng/ml, 72 hours, 3H-Thymidine incorporation; read-out: IA50 (the source's name)
Description: The ability of compounds which can inhibit PMA/ionomycin-stimulated peripheral blood mononuclear cell proliferation can be assessed, for example using the procedure set out below:
Inhibition of PMA/Ionomycin-Stimulated Peripheral Blood Mononuclear Cell Proliferation
The assay for Phorbol 12-myristate 13-Acetate (PMA)/ionomycin-stimulated peripheral blood mononuclear cell (PBMC) proliferation was performed in 96-well flat bottomed microtitre plates. Compounds were prepared as 10 mM stock solutions in dimethyl sulfoxide. A 50-fold dilution of this was prepared in RPMI culture medium and serial diutions were prepared from this solution. 10 μl of the 50-fold diluted stock, or dilutions of it, were added to the well to give concentrations in the assay starting at […] and going down. Into each well was placed 1×10^5 PBMC, prepared from human peripheral blood from a single donor, in RPMI1640 medium supplemented with 10% human serum, 2 mM glutamine and penicillin/streptomycin. PMA (0.5 ng/ml final concentration) and ionomycin (500 ng/ml final concentration) were added to these cells in supplemented RPMI1640 medium (as above) so that the final volume of the assay was 0.2 ml. […] The level of radioactivity incorporated by the cells was then determined and this is a measure of proliferation.

SMILES: CCCn1c(=O)n(C)c(=O)c2c(C(=O)N(C)OC)c(Cn3c(C)nc(Cl)c3Cl)sc21 [Example 7, 6-[4,5-Dichloro-2-methyl-1H-imidazol-1-ylmethyl]-1,2,3,4-tetrahydro-N-methoxy-N,3-dimethyl-2,4-dioxo-1-propyl-thieno[2,3-d]pyrimidine-5-carboxamide]
- IC50: 34.6 nM

SMILES: CON(C)C(=O)c1c(Cc2ccnc3ccccc23)sc2c1c(=O)n(C)c(=O)n2CC(C)C [Example 2, 1,2,3,4-Tetrahydro-N-methoxy-N,3-dimethyl-1-(2-methylpropyl)-2,4-dioxo-6-(4-quinolinylmethyl)thieno[2,3-d]pyrimidine-5-carboxamide]
- IC50: 5.88 nM
